Structures are written as SMILES.

The nature of series [1]: Thin-layer chromatography (TLC) analysis of decomposition after production. As to conditions: 24 hours after purification; in sodium ascorbate aqueous solution (final concentration 1%). The series is classed as physicochemical. As to the method:
The crude product solution (1 µL) was analyzed by thin-layer chromatography (TLC). The sample was spotted on a thin-layer plate (silica gel 60F254), and a mixed solvent of acetonitrile/water (2/1) was used as a developing solvent. The thin-layer plate was exposed to an imaging plate (BAS IP MS 2025E, GE Healthcare) for about 15 min, and then analyzed by a bioimage analyzer (Tyhoon™ FLA-7000, Cytiva). The results are shown in Fig.2. ^211At-AAMT-OMe in the crude product solution was detected at Rf 0.80, and the radiochemical yield (RCY) was 81.3%.
Before purification, immediately after production, 3 hours after production, and 24 hours after production, ^211At-AAMT-OMe was analyzed by thin-layer chromatography (TLC) in the same manner as described above.
24 hours after production, (R)-^211At-AAMT-OMe was analyzed by thin-layer chromatography (TLC) in the same manner as described above.
24 hours after production, ^211At-AAMT-OEt was analyzed by thin-layer chromatography (TLC) in the same manner as described above.
24 hours after production, ^211At-AAMT-OPr was analyzed by thin-layer chromatography (TLC) in the same manner as described above.
24 hours after production, ^211At-AAMPhe-OMe was analyzed by thin-layer chromatography (TLC) in the same manner as described above.

For series [2], the system named is human pancreatic cancer cell line, PANC1. Description: Measurement of accumulated amounts of 211At-labeled compounds in tumors of PANC1 transplanted mice (Test Example 5). The format is in vivo. To be noted: 0.1 MBq per mouse via tail vein. How it is done: Radiation doses before and after the administration were measured, and a difference between them was defined as an injected dose (ID). Ten minutes and one hour after administration, the mice were anesthetized by isoflurane inhalation, the tumors were isolated by autopsy in chronological order, and their radiation doses and weights were measured using a gamma counter (2480 Wizard^2, PerkinElmer) and a semimicro scale (Shimadzu Corporation, readability 10 µg), respectively. For comparison between accumulated amounts, accumulated amounts per unit amount (% ID/g) were calculated.

The subject of series [3] is gemcitabine-resistant human pancreatic cancer cell line, PANC1 (PANC1 Gem-r). Kind of series: Cell viability of gemcitabine-resistant PANC1 in the presence of gemcitabine (Test Example 11). The format is cell-based. As to conditions: PANC1 Gem-r at 30 µg/mL gemcitabine. As to the method:
Gemcitabine (Gem) was added to a human pancreatic cancer cell line, PANC1 at an initial concentration of 100 ng/mL. After 3 days, dead cells were removed, and gemcitabine was again added. Cells that grew like a human pancreatic cancer cell line, PANC1 even in the presence of gemcitabine were isolated and maintained for 3 months while gradually increasing the concentration of gemcitabine in a culture medium.

The subject of another series is PANC1. Description: Cellular uptake test (using PANC1). As to conditions: compared to 211At-AAMT; for uptake speed: PANC1 cells. The format is cell-based, human. As to the method:
• Cells to be used: PANC1 • Culture medium to be used: D-MEM (containing 10% FBS, 1% P/S)
Two days before a test day, a cell suspension was prepared in such a manner that the concentration of predetermined cells was 1 x 10^5 cells/mL in the same manner as in Test Example 1. The cell suspension was seeded in a 24-well multiculture plate at a volume of 0.5 mL per well. On the day of the test, cultures were confirmed to be subconfluent (which refers to a state where 70-80% of the well is covered in density). The cells were washed twice with warmed PBS(-) Buffer (166-23555, FUJIFILM Wako Pure Chemical Corporation), the culture medium was replaced with HBSS(-) Buffer (085-09355, FUJIFILM Wako Pure Chemical Corporation), and the plate was left to stand in an incubator (MINIcell-35, WakenBtech Co., Ltd) until an RI addition test.
^211At-AAMT-OMe, ^211At-AAMT-OEt, ^211At-AAMT-OPr, or ^211At-AAMT was added to the prepared cells at 10 µL/well. BCH (LAT1 inhibitor, 20 mM) or unlabeled AMT (α-methyl tyrosine, […]) was previously (15 minutes before) added (10 µg/mL). The cells were cultured (CO2 5%, 37°C), and after 30 minutes, the liquid was removed by suction using an aspirator. The cells were washed twice with PBS(-). The cells were lysed by adding 0.1N NaOH to obtain a lysate, and the radioactivity of the lysate was measured using a γ counter. After the radioactivity measurement, the lysate was loaded into a 96-well plate at a volume of 10 µL per well, the protein amount was measured by the BCA method, and the number of cells was corrected based on the protein amount. Absorbance was measured by MultiScanFC (Thermo Fisher). The uptake level of ^211At-AAMT-OMe, ^211At-AAMT-OEt, ^211-At-AAMT-OPr, or ^211At-AAMT into the cells (number of radioactivity counts/protein amount) was calculated.

Series [4] concerns human pancreatic cancer cell line, PANC1. To be noted: up to 21 days after administration, 1 MBq per mouse. How it is done: Tumor sizes and body weights were measured over time after the administration. The experiment was terminated 21 days after administration. It should be noted that in Fig. 21 and Fig. 22, "OMe" is ^211At-AAMT-OMe and "OEt" is ^211At-AAMT-OEt.
The subject of series [5] is CDDP-resistant A549 (A549 CDDP-r). Kind of series: Cytotoxicity test on CDDP-resistant A549 (Test Example 8). As to conditions: cultivation for 48 hours. As to the method:
Two days before experiment, A549 and CDDP-resistant A549 (A549 CDDP-r) were each seeded in a 96-well plate at a concentration of 1 × 10^5 cells/mL. ^211At-AAMT-OMe or ^211At-AAMT adjusted to a predetermined concentration was added to A549 cells and CDDP-resistant A549 cells, respectively, and the cells were cultured (CO2 5%, 37°C). After the cultivation for 48 hours, Cell counting kit-8 (DOJINDO LABORATORIES) was added. After the addition, the cells were cultured at 37°C for 1 hour, and cell viability was measured using absorbance at 450 nm as an indicator.

The test system of series [6] is human pancreatic cancer cell line, PANC1. Description: Imaging of mice subcutaneously transplanted with PANC1 (Test Example 2). To be noted: 2 hours after administration, 0.5 MBq per mouse via tail vein.
Source text: Immunodeficient mice (Balb/c-nu/nu, 5-week-old, male) were habituated for 1 week and then subcutaneously transplanted with a human pancreatic cancer cell line (PANC1, 1 × 10^7 cells/mouse). After the transplantation, the mice were observed over time until tumor reached a size large enough for imaging (about 1000 mm^3). […] Two hours after administration, the mice were anesthetized by isoflurane inhalation, and planar images were taken using a γ camera (E-cam, Siemens).
Series [7] has as its system CDDP-resistant A549 (A549 CDDP-r). Kind of series: Cell viability of CDDP-resistant A549 in the presence of CDDP (Test Example 7). The format is cell-based, human. As to conditions: A549 CDDP-r at 100 µg/mL CDDP. As to the method:
Cisplatin (CDDP) was added to a human lung cancer cell line, A549 at an initial concentration of 1 µg/mL. After 3 days, dead cells were removed, and CDDP was again added. Cells that grew like A549 even in the presence of CDDP were isolated and maintained for 3 months while gradually increasing the concentration of CDDP in a culture medium.

The mark [8] stands for this setting: 10 minutes after administration.

As to `COc1cc(C[C@](C)(N)C(=O)O)ccc1[At]` [^211At-AAMPhe-OMe, (S)-α-methyl-4-astato(^211At)-3-methoxyphenylalanine], the “decomposition (TLC)” value in series [1] is “no decomposition”. Further, the tumor accumulation is given as 3.77 %ID/g in series [2] (setting [8]) and 6.38 %ID/g in series [2] (1 hour after administration).
For `Nc1ccn([C@@H]2O[C@H](CO)[C@@H](O)C2(F)F)c(=O)n1` [gemcitabine, Gemcitabine], the cell viability result in series [3] was “still alive”.
As for `CCOc1ccc(C[C@](C)(N)C(=O)O)cc1[At]` [^211At-AAMT-OEt, (S)-3-astato(^211At)-O-ethyl-α-methyltyrosine], the “decomposition (TLC)” value in series [1] is reported as “no decomposition”. The tumor accumulation in series [2] (setting [8]) is reported as 4.21 %ID/g. The molecule further had a tumor accumulation in series [2] (1 hour after administration) of 3.59 %ID/g. For the same molecule, in the series on PANC1, the uptake speed entry is reported as “comparable or superior” and the “uptake level into the cells (number of radioactivity counts/protein amount)” value is “comparable or superior”. Moreover, in series [4], the “apparent toxicity induced by administration” value is given as “not observed” and the body weight result is listed as “gently increased”. In series [4] (compared with the 211At-AAMT-OMe administration group), the “tumor growth inhibiting effect (tumor size)” value was “comparable”.
With `CCCOc1ccc(C[C@](C)(N)C(=O)O)cc1[At]` [^211At-AAMT-OPr, (S)-3-astato(^211At)-O-propyl-α-methyltyrosine], the “decomposition (TLC)” value in series [1] is “no decomposition”. In addition, the tumor accumulation in series [2] (setting [8]) stood at 5.91 %ID/g. For the same molecule, the tumor accumulation in series [2] (1 hour after administration) stood at 9.45 %ID/g. Moreover, in the series on PANC1, the uptake speed entry is on record as “comparable or superior” and the “uptake level into the cells (number of radioactivity counts/protein amount)” value is recorded as “comparable or superior”.
With `C[C@](N)(Cc1ccc(O)c([At])c1)C(=O)O` [^211At-AAMT, astato(^211At)-α-methyl-L-tyrosine, reference compound], the tumor accumulation worked out at 0.29 %ID/g in series [2] (setting [8]) and 2.49 %ID/g in series [2] (1 hour after administration). The “cytotoxicity (cell viability, Cell counting kit-8)” value in series [5] is on record as “has cytotoxicity”. Also, in series [6], the “accumulation in the tumor (planar image, γ camera)” value is reported as “accumulated in the tumor sites”.
For the molecule `COc1ccc(C[C@@](C)(N)C(=O)O)cc1[At]` [(R)-^211At-AAMT-OMe, (R)-3-astato(^211At)-O-methyl-α-methyltyrosine], the “decomposition (TLC)” value in series [1] was “no decomposition”.
As for `[NH2][Pt]([NH2])([Cl])[Cl]` [CDDP, Cisplatin], the cell viability result in series [7] was “still alive”.

(Values after patent EP4592274A1, “RADIOLABELED TYROSINE DERIVATIVE AND APPLICATION THEREOF” (OSAKA UNIVERSITY, priority 2022, dated 2024).)
